Tests used:
CB1 mediated activity = experiment: mice tetrad assay (suppression of spontaneous activity, hypothermia, catalepsy); assay type: in vivo; conditions: 50 mg/kg intravenously, dexanabinol according to the invention
Excerpt: The prepared sample was further tested for suppression of spontaneous activity, hypothermia, and catalepsy measured in the mice tetrad assay, and clearly produced adverse effects. […] Finally, it caused significant catalepsy, with the animals remaining immobile on the beam for almost 30 seconds.
Psychoactive cannabinoids have a variety of pharmacological effects that are evoked through interactions with the CB1 receptors predominantly expressed in the brain. The central nervous system effects that occur after in vivo exposure to HU-210 include euphoria, hypokinesia, hypothermia, anti-nociception, and catalepsy. Hypokinesia, hypothermia, anti-nociception, and catalepsy are the activities that form the basis of the “Tetrad assay” of CB1 mediated activity. […] The threshold for psychomimetic effects of oral THC in humans is in the range of 10-15 mg THC in an adult, i.e from about 0.16 to about 0.25 mg THC/kg body weight for adults of approximately 60 kg (“Cannabis and Cannabinoids, pharmacology, toxicology and therapeutic potential” edited by Grotenhermen and Russo, the Haworth Integrative Healing Press; Chapter 31 pp 345 and 351).
Dexanabinol according to the present invention was tested for suppression of spontaneous activity, hypothermia, and catalepsy in the mice tetrad assay.

[1] = international clinical trials, safety; assay type: in vivo, human; conditions: more than 500 patients exposed, dexanabinol CREMOPHOR EL:ethanol product
Excerpt: A Safety Committee appointed to monitor patient data to ensure patient safety analyzed patients' data after the enrollment and in all cases the safety committee found the drug safe.

[2] = ocular toxicity, topical instillation for five days four times daily; assay type: in vivo, rabbits; conditions: dexanabinol in SME, slit lamp
Method: Ocular toxicity was tested as follows. Two groups of five animals each received topical instillation of dexanabinol in SME and blank SME for five days four times daily. The animals were examined daily with a slit lamp for ocular discharge, conjunctival hyperemia, corneal fluorescein staining and iris hyperemia. Results were scored on a 0.0-4.0 scale in 0.5 steps.

[3] = in vivo; cited from earlier work
[4] = 14-day multiple dose pharmacokinetic/toxicity study, rabbit; assay type: in vivo, rabbits; conditions: for AUC(0-inf) / Cmax: plasma, 25 mg/kg i.v. daily, final dose Day 14 (NOAEL); for AUC∞ Ratio to Phase I / Cmax Ratio to Phase I / AUC∞ Ratio to Phase II / Cmax Ratio to Phase II: 25 mg/kg Day 14; for AUC∞ Ratio to Phase I / Cmax Ratio to Phase I: vs human 150 mg Phase I; for AUC∞ Ratio to Phase II / Cmax Ratio to Phase II: vs human 150 mg Phase II
Method: (§1) The pharmacokinetics of dexanabinol of high enantiomeric purity formulated in CREMOPHOR EL®:ethanol as described in Example 4 were investigated in rats, rabbits, and monkeys following intravenous administration of single doses, and 14 and 28 days of repeated dosing. Human pharmacokinetics was studied during Phase I and Phase II clinical studies. Dexanabinol used in the pharmacokinetic studies was formulated as drug concentrates of 50 and 100 mg/ml and diluted with sterile 0.9% NaCl solution prior to intravenous (i.v.) administration to the desired final doses. Determination of dexanabinol concentrations in plasma and brain extracts was carried out using a validated Gas Chromatography-Mass Spectra (GC-MS) assay following solid phase extraction of the drug and derivatization. The limit of quantitation of the assay is 0.1 ng/ml.
(§2) Pharmacokinetic parameters were estimated by a non-compartmental method using WinNonlin Professional version 3.2 (Pharsight Corp., Mountain View, Calif.). The maximum plasma concentration (Cmax), when the drug is administered by infusion, is the concentration at the end of infusion. The Cmax following intravenous bolus administration is the value estimated by the software to be the concentration at t=0. The terminal slope (X) was estimated by linear regression through the last time points and used to calculate the terminal half-life (t1/2) from the following equation: t1/2=0.693/λ The area under the curve from time of dosing through the last time point (AUCz) was calculated by the linear trapezoid method. The AUC extrapolated to infinity (AUC∞) was calculated from the following equation: AUC∞=AUCz+Cz/λ where Cz is the concentration at the last time point predicted by the linear regression. AUC∞ was normalized for dose (mg/kg) and presented as AUC∞/Dose. Mean residence time (MRT), when the drug is administered by infusion is described by the following equation: MRT=(AUMC/AUC)−(TI)/2 Mean residence time after i.v. bolus administration is described by the following equation: MRT=(AUMC/AUC) where AUMC is the area under the first moment curve and TI is the length of infusion. Plasma clearance (CL), and the apparent volume of distribution at steady state (Vss) were calculated from the following equations: CL=Dose/AUC∞ Vss=MRT×CL
In 14-day multiple dose pharmacokinetic studies, the NOAEL was 15 mg/kg/day in rats and 25 mg/kg/day in rabbits. In a 28-day study in monkeys the NOAEL was 25 mg/kg/day. Cmax and AUC observed following the last dose at the NOAEL in the multiple dose toxicity studies and the ratios of these values to those observed in the Phase I and II studies for the 150 mg dose are shown in Table 7.

[5] = single dose toxicity and pharmacokinetics, monkey; assay type: in vivo, Cynomolgus monkeys; conditions: for AUC(0-inf) / Cmax: plasma, single i.v. 50 mg/kg (NOAEL); for AUC∞ Ratio to Phase I / Cmax Ratio to Phase I / Cmax Ratio to Phase II: single i.v. 50 mg/kg; for AUC∞ Ratio to Phase I / Cmax Ratio to Phase I: vs human 150 mg Phase I; for Cmax Ratio to Phase II: vs human 150 mg Phase II
Method: as §1, §2
Table 6 summarizes the maximum plasma concentration (Cmax) and the area under the plasma concentration versus time curve (AUC) observed at the NOAEL doses cited above, as well as the animal to human exposure ratios (ER) for dexanabinol of high enantiomeric purity, expressed as the ratio of the pharmacokinetic (PK) parameter to that observed for a 150 mg dose in a Phase I study in human volunteers and in Phase II study in patients suffering from severe traumatic brain injury (TBI).

[6] = both sexes, iv, rabbit male & female
[7] = both sexes, cynomolgus monkey, iv, monkey male & female
[8] = cynomolgus monkey, iv, monkey female
[9] = cynomolgus monkey, iv, monkey male

CCCCCCC(C)(C)c1cc(O)c2c(c1)OC(C)(C)[C@H]1CC=C(CO)C[C@H]21 [dexanabinol, 1,1-dimethylheptyl-(3S,4S)-7-hydroxy-Δ^6-tetrahydrocannabinol]
adverse effect in tetrad assay (CB1 mediated activity): no adverse effect | serious adverse reactions [1]: no serious adverse reactions were reported | conjunctival injection and discharge [2]: mild conjunctival injection and discharge that did not significantly differ from SME-blank treated animals | corneal staining, corneal opacities and iris hyperemia [2]: did not occur in any of the animals | cardiovascular effects [3]: devoid of cardiovascular effects | AUC(0-inf) [4, 6]: 67700 ng·h/mL | Cmax [4, 6]: 132 µg/mL | AUC(0-inf) ([4]; iv, rabbit female): 67900 ng·h/mL | Cmax ([4]; iv, rabbit female): 115 µg/mL | AUC(0-inf) ([4]; iv, rabbit male): 67700 ng·h/mL | Cmax ([4]; iv, rabbit male): 150 µg/mL | AUC∞ Ratio to Phase I ([4]; rabbit female): 21.2 | Cmax Ratio to Phase I ([4]; rabbit female): 23.0 | AUC∞ Ratio to Phase II ([4]; rabbit female): 45.8 | Cmax Ratio to Phase II ([4]; rabbit female): 58.6 | AUC∞ Ratio to Phase I ([4]; rabbit male & female): 21.1 | Cmax Ratio to Phase I ([4]; rabbit male & female): 26.4 | AUC∞ Ratio to Phase II ([4]; rabbit male & female): 45.6 | Cmax Ratio to Phase II ([4]; rabbit male & female): 67.2 | AUC∞ Ratio to Phase I ([4]; rabbit male): 21.1 | Cmax Ratio to Phase I ([4]; rabbit male): 29.9 | AUC∞ Ratio to Phase II ([4]; rabbit male): 45.6 | Cmax Ratio to Phase II ([4]; rabbit male): 76.0 | NOAEL at 14 days ([4]; rabbit, in vivo, iv, 14-day multiple dose i.v.): 25 mg/kg/day | AUC(0-inf) [5, 7]: 127000 ng·h/mL | Cmax [5, 7]: 171 µg/mL | NOAEL ([5]; cynomolgus monkey, in vivo, iv, single dose i.v., read-out: no observed adverse effect level (NOAEL)): 50 mg/kg | AUC(0-inf) [5, 8]: 136000 ng·h/mL | Cmax [5, 8]: 175 µg/mL | AUC(0-inf) [5, 9]: 117000 ng·h/mL | Cmax [5, 9]: 167 µg/mL | AUC∞ Ratio to Phase I ([5]; monkey female): 42.4 | Cmax Ratio to Phase I ([5]; monkey female): 35.0 | Cmax Ratio to Phase II ([5]; monkey female): 89.0 | AUC∞ Ratio to Phase I ([5]; monkey male & female): 39.5 | Cmax Ratio to Phase I ([5]; monkey male & female): 34.2 | Cmax Ratio to Phase II ([5]; monkey male & female): 86.9 | AUC∞ Ratio to Phase I ([5]; monkey male): 36.6 | Cmax Ratio to Phase I ([5]; monkey male): 33.4 | Cmax Ratio to Phase II ([5]; monkey male): 84.9

From patent US20070060636A1, “High enantiomeric purity dexanabinol for pharmaceutical compositions” (priority 2002, published 2007)
